In ChEMBL document CHEMBL4014278, “Discovery of uracil-bearing DAPYs derivatives as novel HIV-1 NNRTIs via crystallographic overlay-based molecular hybridization” (Eur J Med Chem, 2017):
≈ marks a conversion by molar mass, not a printed value. Where a name gives a salt, the structure may show the parent alone.

Columns and labels:
[1] = tested on: Human immunodeficiency virus 1; experiment: Antiviral activity against HIV1 RES056 harboring K103N/Y181C double mutant infected in human MT4 cells assessed as protection against virus-induced cytopathic effect measured at 5 days post infection by MTT assay; assay type: functional, cell-based; details: Human immunodeficiency virus 1, RES056, MT4, 120 h
[2] = Selectivity index, ratio of CC50 for human MT4 cells to EC50 for wild-type HIV1 3B infected in human MT4 cells; assay type: toxicity, cell-based; details: read-out: Ratio CC50/EC50
[3] = tested on: Human immunodeficiency virus 2; experiment: Antiviral activity against HIV-2 ROD infected in human MT4 cells assessed as protection against virus-induced cytopathic effect measured at 5 days post infection by MTT assay; assay type: functional, cell-based; details: Human immunodeficiency virus 2, ISOLATE ROD, MT4, 120 h
[4] = tested on: Human immunodeficiency virus 1; experiment: Antiviral activity against wild-type HIV1 3B infected in human MT4 cells assessed as protection against virus-induced cytopathic effect measured at 5 days post infection by MTT assay; assay type: functional, cell-based; details: Human immunodeficiency virus 1, 3B, MT4, 120 h
[5] = Cytotoxicity against human MT4 cells after 5 days by MTT assay; assay type: cell-based
[6] = Solubility of the compound in phosphate buffer at pH 2 after 2 hrs by UV-HPLC method; assay type: physicochemical
[7] = Solubility of the compound in phosphate buffer at pH 7.4 after 2 hrs by UV-HPLC method; assay type: physicochemical
[8] = n-Octanol/water partition coefficient, log P of the compound after 2 hrs by HPLC method; assay type: physicochemical
[9] = tested on: Human immunodeficiency virus 1; experiment: Fold resistance, ratio of EC50 for HIV1 harboring Y181C mutant infected in human MT4 cells to EC50 for wild-type HIV1 3B infected in human MT4 cells; assay type: functional
[10] = tested on: Human immunodeficiency virus 1; experiment: Antiviral activity against HIV1 harboring K103N mutant infected in human MT4 cells assessed as protection against virus-induced cytopathic effect measured at 5 days post infection by MTT assay; assay type: functional, cell-based; details: Human immunodeficiency virus 1, MT4, 120 h
[11] = Inhibition of wild-type HIV1 reverse transcriptase assessed as decrease in biotin-dUTP incorporation using poly(A)/oligo(dT)15 as template/primer after 1 hr by ELISA; set-up: species or system Human immunodeficiency virus 1
[12] = tested on: Human immunodeficiency virus 1; experiment: Fold resistance, ratio of EC50 for HIV1 harboring Y188L mutant infected in human MT4 cells to EC50 for wild-type HIV1 3B infected in human MT4 cells; assay type: functional
[13] = tested on: Human immunodeficiency virus 1; experiment: Antiviral activity against HIV1 harboring Y188L mutant infected in human MT4 cells assessed as protection against virus-induced cytopathic effect measured at 5 days post infection by MTT assay; assay type: functional, cell-based; details: Human immunodeficiency virus 1, MT4, 120 h
[14] = tested on: Human immunodeficiency virus 1; experiment: Fold resistance, ratio of EC50 for HIV1 harboring L100I mutant infected in human MT4 cells to EC50 for wild-type HIV1 3B infected in human MT4 cells; assay type: functional
[15] = tested on: Human immunodeficiency virus 1; experiment: Antiviral activity against HIV1 harboring F227L/V106A double mutant infected in human MT4 cells assessed as protection against virus-induced cytopathic effect measured at 5 days post infection by MTT assay; assay type: functional, cell-based; details: Human immunodeficiency virus 1, MT4, 120 h
[16] = tested on: Human immunodeficiency virus 1; experiment: Antiviral activity against HIV1 harboring Y181C mutant infected in human MT4 cells assessed as protection against virus-induced cytopathic effect measured at 5 days post infection by MTT assay; assay type: functional, cell-based; details: Human immunodeficiency virus 1, MT4, 120 h
[17] = tested on: Human immunodeficiency virus 1; experiment: Antiviral activity against HIV1 harboring E138K mutant infected in human MT4 cells assessed as protection against virus-induced cytopathic effect measured at 5 days post infection by MTT assay; assay type: functional, cell-based; details: Human immunodeficiency virus 1, MT4, 120 h
[18] = tested on: Human immunodeficiency virus 1; experiment: Antiviral activity against HIV1 harboring L100I mutant infected in human MT4 cells assessed as protection against virus-induced cytopathic effect measured at 5 days post infection by MTT assay; assay type: functional, cell-based; details: Human immunodeficiency virus 1, MT4, 120 h
[19] = tested on: Human immunodeficiency virus 1; experiment: Fold resistance, ratio of EC50 for HIV1 harboring K103N mutant infected in human MT4 cells to EC50 for wild-type HIV1 3B infected in human MT4 cells; assay type: functional
[20] = tested on: Human immunodeficiency virus 1; experiment: Fold resistance, ratio of EC50 for HIV1 harboring E138K mutant infected in human MT4 cells to EC50 for wild-type HIV1 3B infected in human MT4 cells; assay type: functional

Structure (SMILES) | EC50 [1] [µM] | selectivity ratio [2] | EC50 [3] [µM] | EC50 [4] [µM] | CC50 at 120 h [5] [µM] | other results
Cc1cc(C)c(Oc2cc(Cl)nc(NCCn3ccc(=O)[nH]c3=O)n2)c(C)c1 | > 44.1 | 85 | > 44.1 | 0.52 | 44.1 | 
Cc1cc(C)c(Nc2nc(NCCn3ccc(=O)[nH]c3=O)ncc2[N+](=O)[O-])c(C)c1 | > 3.33 | ≥ 40 | > 3.33 | 0.083 | ≥ 3.33 | 
Cc1cc(C)cc(Oc2cc(NCCn3ccc(=O)[nH]c3=O)nc(Cl)n2)c1 |  | < 1 | > 99.5 | > 99.5 | 99.5 | 
Cc1cc(C)c(Oc2ccnc(NCCn3ccc(=O)[nH]c3=O)n2)c(C)c1 | > 272 | 515 | > 272 | 0.53 | 272 | 
Cc1cc(C#N)cc(C)c1Oc1ccnc(NCCn2ccc(=O)[nH]c2=O)n1 | > 35.8 | 5 | > 35.8 | 6.66 | 35.8 | solubility at 2 h [6]: > 100 µg/mL; solubility at 2 h [7]: 62.9 µg/mL (≈ 166 µM); logP at 2 h [8]: -0.11
Cc1cc(/C=C/C#N)cc(C)c1Oc1cc(Cl)nc(NCCn2ccc(=O)[nH]c2=O)n1 | > 285 | > 2270 | > 285 | 0.12 | > 285 | 
Cc1cc(C#N)cc(C)c1Oc1cc(Cl)nc(NCCn2ccc(=O)[nH]c2=O)n1 | > 20.6 | 3 | > 20.6 | 7.73 | 20.6 | 
Cc1cc(C)c(Oc2cc(N)nc(NCCn3ccc(=O)[nH]c3=O)n2)c(C)c1 | > 119 | 44 | > 119 | 2.7 | 119 | 
Cc1cc(C)c(Oc2cc(NCCn3ccc(=O)[nH]c3=O)nc(Cl)n2)c(C)c1 |  | ≤ 2 | > 76.4 | > 42.3 | 76.4 | 
Cc1cc(C#N)cc(C)c1Oc1nc(NCCn2ccc(=O)[nH]c2=O)ncc1Cl | > 11.7 | ≥ 255 | > 11.7 | 0.046 | > 11.7 | 
Cc1cc(C#N)cc(C)c1Oc1nc(NCCn2ccc(=O)[nH]c2=O)nc(N)c1Br | > 265 | > 7680 | > 265 | 0.034 | > 265 | 
Cc1cc(C)cc(Oc2cc(N)nc(NCCn3ccc(=O)[nH]c3=O)n2)c1 |  | < 1 | > 127 | > 45.8 | 127 | 
Cc1cc(C)cc(Oc2cc(Cl)nc(NCCn3ccc(=O)[nH]c3=O)n2)c1 |  | > 1 | > 56.5 | > 56.5 | > 56.5 | 
Cc1cc(C)c(Nc2nc(NCCn3ccc(=O)[nH]c3=O)ncc2N)c(C)c1 | > 299 | > 20 | > 299 | 14.9 | > 199 | 
Cc1cc(/C=C/C#N)cc(C)c1Oc1nc(NCCn2ccc(=O)[nH]c2=O)ncc1Cl | 23.3 | > 50500 | > 285 | 0.0056 | > 285 | Ratio EC50 [9]: 27; EC50 [10]: 0.086 µM; IC50 [11]: 1.58 µM; Ratio EC50 [12]: 9277; EC50 [13]: 52 µM; Ratio EC50 [14]: 77; EC50 [15]: ≥ 96.6 µM; solubility at 2 h [7]: < 0.1 µg/mL; EC50 [16]: 0.15 µM; EC50 [17]: 0.034 µM; EC50 [18]: 0.43 µM; Ratio EC50 [19]: 15; Ratio EC50 [20]: 6
Cc1cc(/C=C/C#N)cc(C)c1Oc1ccnc(NCCn2ccc(=O)[nH]c2=O)n1 | > 309 | > 9100 | > 309 | 0.034 | > 309 | solubility at 2 h [7]: < 1 µg/mL
Cc1cc(C=CC#N)cc(C)c1Oc1cc(NCCn2ccc(=O)[nH]c2=O)nc(Cl)n1 |  | 5 | > 26.2 | 5.81 | 26.2 | 
Cc1cc(C)c(Oc2nc(NCCn3ccc(=O)[nH]c3=O)ncc2Cl)c(C)c1 | > 2.49 | 317 | > 2.49 | 0.0078 | 2.49 | 
Cc1cc(C#N)cc(C)c1Oc1cc(N)nc(NCCn2ccc(=O)[nH]c2=O)n1 | > 204 | 11 | > 204 | 18.9 | 204 | 
Cc1cc(C)c(Oc2nc(Cl)ncc2NCCn2ccc(=O)[nH]c2=O)c(C)c1 | > 2.89 | < 1 | > 2.89 | > 2.89 | 2.89 | 
Cc1cc(C#N)cc(C)c1Oc1cc(NCCn2ccc(=O)[nH]c2=O)nc(Cl)n1 | > 27.9 | 3 | > 27.9 | 9.38 | 27.9 | 
Cc1cc(C)cc(Oc2nc(NCCn3ccc(=O)[nH]c3=O)ncc2Cl)c1 | > 322 | > 367 | > 322 | 0.88 | > 322 | 
Cc1cc(C)cc(Oc2ccnc(NCCn3ccc(=O)[nH]c3=O)n2)c1 | > 74.8 | 2 | > 74.8 | 48.8 | 74.8 | 
CC(C)Nc1cccnc1N1CCN(C(=O)c2cc3cc(NS(C)(=O)=O)ccc3[nH]2)CC1 [DELAVIRDINE MESYLATE] | 0.032 |  |  |  | 30.4 | EC50 [13]: 0.69 µM; EC50 [16]: 2.04 µM; EC50 [17]: 0.043 µM; EC50 [18]: 2.1 µM
O=C1Nc2ccc(Cl)cc2[C@@](C#CC2CC2)(C(F)(F)F)O1 [EFAVIRENZ] |  |  |  |  | > 6.34 | EC50 [13]: 0.34 µM; EC50 [15]: 0.21 µM; EC50 [16]: 0.0068 µM; EC50 [18]: 0.1 µM
Cc1ccnc2c1NC(=O)c1cccnc1N2C1CC1 [NEVIRAPINE] | 0.26 |  |  |  | > 15 | IC50 [11]: 1.39 µM; EC50 [13]: 9.61 µM; EC50 [16]: 6.22 µM; EC50 [18]: 0.83 µM
Cc1cn([C@H]2C[C@H](N=[N+]=[N-])[C@@H](CO)O2)c(=O)[nH]c1=O [ZIDOVUDINE] | 0.0071 | > 1050 |  |  | > 7.48 | EC50 [10]: 0.0083 µM; EC50 [13]: 0.011 µM; EC50 [15]: 0.005 µM; EC50 [16]: 0.0071 µM; EC50 [17]: 0.013 µM
